From PubChem BioAssay (NCI)
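All cell lines were grown in 96-well plates and treated with compound for 48 hours. GI50 = concentration required for 50% inhibition of growth. TGI is the concentration that stops growth completely.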

Columns and labels:
Experiment in all cases: NCI-60 cell line screen, 48 h
786-0 renal = system: 786-0 renal
A498 renal = system: A498 renal
A549 NSCLC = system: A549 NSCLC
ACHN renal = system: ACHN renal
BT-549 breast = system: BT-549 breast
CCRF-CEM leukemia = system: CCRF-CEM leukemia
COLO 205 colon = system: COLO 205 colon
DU-145 prostate = system: DU-145 prostate
EKVX NSCLC = system: EKVX NSCLC
HCC-2998 colon = system: HCC-2998 colon
HCT-116 colon = system: HCT-116 colon
HCT-15 colon = system: HCT-15 colon
HL-60(TB) leukemia = system: HL-60(TB) leukemia
HOP-62 NSCLC = system: HOP-62 NSCLC
HOP-92 NSCLC = system: HOP-92 NSCLC
HS 578T breast = system: HS 578T breast
HT29 colon = system: HT29 colon
IGROV1 ovarian = system: IGROV1 ovarian
K-562 leukemia = system: K-562 leukemia
KM12 colon = system: KM12 colon
LOX IMVI melanoma = system: LOX IMVI melanoma
M14 melanoma = system: M14 melanoma
MALME-3M melanoma = system: MALME-3M melanoma
MCF7 breast = system: MCF7 breast
MDA-MB-231 breast = system: MDA-MB-231 breast
MDA-MB-435 = system: MDA-MB-435
MOLT-4 leukemia = system: MOLT-4 leukemia
NCI-H226 lung = system: NCI-H226 lung
NCI-H23 lung = system: NCI-H23 lung
NCI-H460 lung = system: NCI-H460 lung
NCI-H522 lung = system: NCI-H522 lung
NCI/ADR-RES ovarian = system: NCI/ADR-RES ovarian
OVCAR-3 ovarian = system: OVCAR-3 ovarian
OVCAR-4 ovarian = system: OVCAR-4 ovarian
OVCAR-5 ovarian = system: OVCAR-5 ovarian
OVCAR-8 ovarian = system: OVCAR-8 ovarian
PC-3 prostate = system: PC-3 prostate
RPMI-8226 leukemia = system: RPMI-8226 leukemia
RXF 393 renal = system: RXF 393 renal
SF-268 CNS = system: SF-268 CNS
SF-295 CNS = system: SF-295 CNS
SF-539 CNS = system: SF-539 CNS
SK-MEL-2 melanoma = system: SK-MEL-2 melanoma
SK-MEL-28 melanoma = system: SK-MEL-28 melanoma
SK-MEL-5 melanoma = system: SK-MEL-5 melanoma
SK-OV-3 ovarian = system: SK-OV-3 ovarian
SN12C renal = system: SN12C renal
SNB-19 CNS = system: SNB-19 CNS
SNB-75 CNS = system: SNB-75 CNS
SR leukemia = system: SR leukemia
SW-620 colon = system: SW-620 colon
T-47D breast = system: T-47D breast
TK-10 renal = system: TK-10 renal
U251 CNS = system: U251 CNS
UACC-257 melanoma = system: UACC-257 melanoma
UACC-62 melanoma = system: UACC-62 melanoma
UO-31 renal = system: UO-31 renal
CAKI-1 renal = system: CAKI-1 renal

C(/Cc1ccc2c(c1)OCO2)=N\NC1=NCCN1 was tested, and the TGI (786-0 renal) was > 100 µM, the TGI (A498 renal) was 70.5 µM and the TGI (A549 NSCLC) was > 100 µM. For the same compound, the TGI (ACHN renal) was > 100 µM, the TGI (BT-549 breast) was > 100 µM and the TGI (CCRF-CEM leukemia) was > 100 µM. The TGI (COLO 205 colon) was > 100 µM, the TGI (DU-145 prostate) was > 100 µM and the TGI (EKVX NSCLC) was > 100 µM. The TGI (HCC-2998 colon) was > 100 µM, the TGI (HCT-116 colon) was > 100 µM and the TGI (HCT-15 colon) was > 100 µM. The TGI (HL-60(TB) leukemia) was > 100 µM, the TGI (HOP-62 NSCLC) was > 100 µM and the TGI (HOP-92 NSCLC) was > 100 µM. For the same compound, the TGI (HS 578T breast) was > 100 µM, the TGI (HT29 colon) was > 100 µM and the TGI (IGROV1 ovarian) was > 100 µM. The TGI (K-562 leukemia) was > 100 µM, the TGI (KM12 colon) was > 100 µM and the TGI (LOX IMVI melanoma) was > 100 µM. For the same compound, the TGI (M14 melanoma) was > 100 µM, the TGI (MALME-3M melanoma) was > 100 µM and the TGI (MCF7 breast) was > 100 µM. The TGI (MDA-MB-231 breast) was > 100 µM, the TGI (MDA-MB-435) was > 100 µM and the TGI (MOLT-4 leukemia) was > 100 µM. For the same compound, the TGI (NCI-H226 lung) was > 100000 nM, the TGI (NCI-H23 lung) was > 100 µM and the TGI (NCI-H460 lung) was > 100 µM. The TGI (NCI-H522 lung) was > 100 µM, the TGI (NCI/ADR-RES ovarian) was > 100 µM and the TGI (OVCAR-3 ovarian) was > 100 µM. For the same compound, the TGI (OVCAR-4 ovarian) was > 100 µM, the TGI (OVCAR-5 ovarian) was > 100 µM and the TGI (OVCAR-8 ovarian) was > 100 µM. For the same compound, the TGI (PC-3 prostate) was > 100 µM, the TGI (RPMI-8226 leukemia) was > 100 µM and the TGI (RXF 393 renal) was > 100 µM. For the same compound, the TGI (SF-268 CNS) was > 100 µM, the TGI (SF-295 CNS) was > 100 µM and the TGI (SF-539 CNS) was > 100 µM. The TGI (SK-MEL-2 melanoma) was > 100 µM, the TGI (SK-MEL-28 melanoma) was > 100 µM and the TGI (SK-MEL-5 melanoma) was > 100 µM. For the same compound, the TGI (SK-OV-3 ovarian) was > 100 µM, the TGI (SN12C renal) was > 100 µM and the TGI (SNB-19 CNS) was > 100 µM. The TGI (SNB-75 CNS) was > 100 µM, the TGI (SR leukemia) was > 100 µM and the TGI (SW-620 colon) was > 100 µM. For the same compound, the TGI (T-47D breast) was > 100 µM, the TGI (TK-10 renal) was > 100 µM and the TGI (U251 CNS) was > 100 µM. For the same compound, the TGI (UACC-257 melanoma) was > 100 µM, the TGI (UACC-62 melanoma) was > 100 µM and the TGI (UO-31 renal) was > 100 µM.
CCN(Cc1ccc(F)cc1)c1ccc(CO)c(C)c1 gave a GI50 (786-0 renal) of 13 µM, a TGI (786-0 renal) of 29.5 µM and a GI50 (A498 renal) of 216 nM. For the same compound, the TGI (A498 renal) was 1.14 µM, the GI50 (A549 NSCLC) was 17.1 µM and the TGI (A549 NSCLC) was 69.4 µM. The GI50 (ACHN renal) was 12.5 µM, the TGI (ACHN renal) was 39.4 µM and the GI50 (BT-549 breast) was 5.15 µM. For the same compound, the TGI (BT-549 breast) was 24.5 µM, the GI50 (CAKI-1 renal) was 3.28 µM and the TGI (CAKI-1 renal) was 25.5 µM. For the same compound, the GI50 (CCRF-CEM leukemia) was 19.7 µM, the TGI (CCRF-CEM leukemia) was 59.2 µM and the GI50 (COLO 205 colon) was 5.7 µM. The TGI (COLO 205 colon) was 19 µM, the GI50 (DU-145 prostate) was 21.1 µM and the TGI (DU-145 prostate) was 59.2 µM. For the same compound, the GI50 (HCC-2998 colon) was 14.6 µM, the TGI (HCC-2998 colon) was 29.4 µM and the GI50 (HCT-116 colon) was 2020 nM. The TGI (HCT-116 colon) was 17.6 µM, the GI50 (HCT-15 colon) was 8.86 µM and the TGI (HCT-15 colon) was 39.4 µM. The GI50 (HL-60(TB) leukemia) was 9.86 µM, the TGI (HL-60(TB) leukemia) was 39.3 µM and the GI50 (HOP-62 NSCLC) was 17.7 µM. It also gave a TGI (HOP-62 NSCLC) of 39.1 µM, a GI50 (HOP-92 NSCLC) of 8.45 µM and a TGI (HOP-92 NSCLC) of 27 µM. It also gave a GI50 (HS 578T breast) of 11.7 µM, a TGI (HS 578T breast) of 64.8 µM and a GI50 (HT29 colon) of 20.7 µM. For the same compound, the TGI (HT29 colon) was 55.8 µM, the GI50 (IGROV1 ovarian) was 1250 nM and the TGI (IGROV1 ovarian) was 6.16 µM. For the same compound, the GI50 (K-562 leukemia) was 9.03 µM, the TGI (K-562 leukemia) was > 72.5 µM and the GI50 (KM12 colon) was 19.6 µM. For the same compound, the TGI (KM12 colon) was 45.1 µM, the GI50 (LOX IMVI melanoma) was 14.9 µM and the TGI (LOX IMVI melanoma) was 29 µM. It also gave a GI50 (M14 melanoma) of 14.3 µM, a TGI (M14 melanoma) of 37.6 µM and a GI50 (MALME-3M melanoma) of 5.58 µM. The TGI (MALME-3M melanoma) was 17.3 µM, the GI50 (MCF7 breast) was 15.1 µM and the TGI (MCF7 breast) was > 52.2 µM. For the same compound, the GI50 (MDA-MB-231 breast) was 16.6 µM, the TGI (MDA-MB-231 breast) was 35.7 µM and the GI50 (MDA-MB-435) was 18 µM. The TGI (MDA-MB-435) was 45.5 µM, the GI50 (MOLT-4 leukemia) was 15.5 µM and the TGI (MOLT-4 leukemia) was 58.8 µM. It also gave a GI50 (NCI-H226 lung) of 291 nM, a TGI (NCI-H226 lung) of 1120 nM and a GI50 (NCI-H23 lung) of 13.2 µM. For the same compound, the TGI (NCI-H23 lung) was 37.1 µM, the GI50 (NCI-H460 lung) was 11.5 µM and the TGI (NCI-H460 lung) was 32.3 µM. The GI50 (NCI-H522 lung) was 8.52 µM, the TGI (NCI-H522 lung) was 22 µM and the GI50 (NCI/ADR-RES ovarian) was 16.8 µM. It also gave a TGI (NCI/ADR-RES ovarian) of 53.5 µM, a GI50 (OVCAR-3 ovarian) of 11.1 µM and a TGI (OVCAR-3 ovarian) of 24.1 µM. For the same compound, the GI50 (OVCAR-4 ovarian) was 2460 nM, the TGI (OVCAR-4 ovarian) was 14.3 µM and the GI50 (OVCAR-5 ovarian) was 856 nM. For the same compound, the TGI (OVCAR-5 ovarian) was 4.46 µM, the GI50 (OVCAR-8 ovarian) was 11.9 µM and the TGI (OVCAR-8 ovarian) was 38.4 µM. For the same compound, the GI50 (PC-3 prostate) was 11.6 µM, the TGI (PC-3 prostate) was 32.3 µM and the GI50 (RPMI-8226 leukemia) was 6.69 µM. The TGI (RPMI-8226 leukemia) was 37.1 µM, the GI50 (RXF 393 renal) was 8.47 µM and the TGI (RXF 393 renal) was 23.3 µM. The GI50 (SF-268 CNS) was 24.9 µM, the TGI (SF-268 CNS) was > 58.9 µM and the GI50 (SF-295 CNS) was 10.9 µM. The TGI (SF-295 CNS) was 32.8 µM, the GI50 (SF-539 CNS) was 15 µM and the TGI (SF-539 CNS) was 29.8 µM. The GI50 (SK-MEL-2 melanoma) was 7.58 µM, the TGI (SK-MEL-2 melanoma) was 22.8 µM and the GI50 (SK-MEL-28 melanoma) was 13.3 µM. It also gave a TGI (SK-MEL-28 melanoma) of 28.6 µM, a GI50 (SK-MEL-5 melanoma) of 10.2 µM and a TGI (SK-MEL-5 melanoma) of 22.8 µM. The GI50 (SK-OV-3 ovarian) was 8.91 µM, the TGI (SK-OV-3 ovarian) was 41.5 µM and the GI50 (SN12C renal) was 19.3 µM. The TGI (SN12C renal) was > 82.6 µM, the GI50 (SNB-19 CNS) was 31.4 µM and the TGI (SNB-19 CNS) was > 100 µM. The GI50 (SNB-75 CNS) was 4.1 µM, the TGI (SNB-75 CNS) was 20.2 µM and the GI50 (SR leukemia) was 20.3 µM. It also gave a TGI (SR leukemia) of 58.1 µM, a GI50 (SW-620 colon) of 14.5 µM and a TGI (SW-620 colon) of 54.1 µM. It also gave a GI50 (T-47D breast) of 920 nM, a TGI (T-47D breast) of 6.95 µM and a GI50 (TK-10 renal) of 884 nM. The TGI (TK-10 renal) was 4.2 µM, the GI50 (U251 CNS) was 12.1 µM and the TGI (U251 CNS) was 40.1 µM. For the same compound, the GI50 (UACC-257 melanoma) was 2920 nM, the TGI (UACC-257 melanoma) was 15 µM and the GI50 (UACC-62 melanoma) was 1190 nM. The TGI (UACC-62 melanoma) was 6.87 µM, the GI50 (UO-31 renal) was 9.34 µM and the TGI (UO-31 renal) was 25.1 µM.
